How the values were obtained:
[1] = system: histone H1 (cross linking by ADP-ribose); experiment: glycation induced cross linking of histone H1, 12% SDS-PAGE, silver staining; assay type: biochemical, calf; details: aliquots of 5 day incubation mixtures
Protocol: This example describes a secondary screening, to further evaluate compounds which were deemed positive following the assays of examples 1 and 2. Specifically, it will be recalled that each sample was tested in two wells, one of which was tested in example 2, supra. The sample not used was analyzed, via 12% SDS-PAGE, followed by silver staining, in order to visualize protein cross-linking. This serves as an independent measure of glycation caused protein damage. […] To test this, reaction aliquots of the 5 day incubation mixtures, described in Example 1, supra, were assessed on 12% SDS-PAGE. Both untreated histone H1, and the aminoguanidine containing positive control were tested in the same way. All were visualized by silver staining.

[2] = system: histone H1 (glycation by ADP-ribose); experiment: AGE-fluorescence screening of glycation inhibitors, histone H1 + ADP-ribose, 96 well microtiter plates; assay type: biochemical, calf; details: for AGE-fluorescence (day 5): 5 days incubation; for inhibition of AGE-fluorescence, in words: 1 to 10 mM, 5 days; for % inhibition: AGE-fluorescence day 5; for AGE-fluorescence (day 0): value (spread)
Protocol: A 96-well, microtiter plate was used to carry out 48 reactions in duplicate. […] A second pair of wells contains the reactants and the known glycation inhibitor aminoguanidine, and functions as a positive control. Histone H1 is commercially available, and can be prepared following the procedures set out in Johns, et al., Biochem J. 92:55-59(1964), which is incorporated by reference herein.
The reaction system is 50 mM potassium phosphate buffer, at pH 7.4 to which 1.5 mg/ml histone H1 and 1.0 mM ADP-ribose were added. Reaction volume was 300 ul. AGE-fluorescence was measured over time, with incubation at 37° C., at 355 nm (ex) and 405 nm (em). Upon comparison to the control, a test compound was deemed potentially positive if AGE-fluorescence was suppressed.
The histone H1 (1.5 mg/ml) was combined with 1 mM ADP-ribose, in […] KH2PO4 buffer (pH 7.4, 37° C., 0.015% NaN3 added, to inhibit microbial growth). This reaction mixture was added, to 96 well microtiter plates. Test compounds were added to the reaction mixture, at concentrations ranging from 1 to 10 mM, in reaction volumes of 300 ul. Texts were run in duplicate.
Accumulated protein damage was determined by measuring AGE-fluorescence, at wavelengths (λex=370 nm; λ em=440 nm. The fluorescence is suppressed in the presence of compounds with inhibitory activity. Assays were read on a conventional microtiter plate, with a filter setting that approached the above conditions (λ ex: 355 nm, λ […]: 405 nm), which is in the range of the broad excitation/emission maxima of AGE compounds.
The fluorescence was measured at the beginning, and after 5 days of incubation.
The known glycation inhibitor aminoguanidine was used as a control.

[3] = α-dicarbonyl trapping, reaction with phenylglyoxal followed by HPLC
Protocol: To learn more about the reaction, D-penicillamine was reacted with phenylglyoxal. In the fashion described supra, phenylgyloxal, at final concentration of 10 mM, and D-penicillamine, at final concentration of 20 mM were reacted in 50 mM KH2PO4 buffer, pH 7.4, at room temperature. Reaction progress was monitored via HPLC analysis of reaction aliquots at 254 nm. After 40 minutes, more than 90% conversion of phenylgloxal peak into a single peak was observed. The product was obtained via preparative HPLC, was lyophilized, and analyzed by H-NMR spectroscopy.
Reactions were carried out in 10 mM phosphate buffer, pH 7.4, at 37° C., and were followed by HPLC analysis. Phenylglyoxal was used at a concentration of 50 mM, while D-penicillamine and aminoguanidine were used at concentrations of 250 mM, and 500 mM. The phenylglyoxal was used as a UV active, α-oxoaldehyde compound. Over the course of the reaction, aliquots were analyzed via HPLC. […] Initial reaction rates of phenylglyoxal and test compounds were monitored by following the disappearance of phenylglyoxal over time. […]
The measured, first order rate constant (k1st) was used to calculate the second order rate constant (k2nd), according to: […]
The calculated second order rate constants were determined at two reactant rates (5:1, and 10:1), and were in good agreement.

[4] = system: He-Cat (human epidermal keratinocytes); experiment: protection against α-dicarbonyl toxicity in keratinocytes, cell count; assay type: cell-based; details: for protection against growth inhibition by glyoxal: compound 1 mM added 15 minutes prior to glyoxal; for protection against growth inhibition by glyoxal / protection against methylglyoxal induced growth inhibition: 72 hours; for protection against methylglyoxal induced growth inhibition: compound 1 mM added 15 minutes prior to methylglyoxal
Protocol: (§1) Continuously cultured cell lines “He-Cat” (human epidermal keratinocytes), and “CF-3” (human dermal fibroblasts), were cultured under standard conditions, divided biweekly into DMEM containing 10% fetal bovine serum, and were kept in a humidified atmosphere containing 5% CO2 at 37° C. In order to divide the cells, 5% trypsin was used on the keratinocytes, and 1% trypsin was used on the fibroblasts.
(§2) Keratinocytes were seeded at 2×10^4 cells/well, and fibroblasts at 4×10^4 cells/well, using 6 well dishes. The cells were allowed to attach to the plate overnight. Either D-penicillamine or aminoguanidine (1 mM each) was added to the plates 15 minutes prior to addition of glyoxal or methylglyoxal. The α-dicarbonyl was left for 72 hours. Varying concentrations of the α-dicarbonyl were used. Cells were counted with a Coulter counter after 72 hours of stress. Cultures were also run where the glyoxal or methylglyoxal was used without the scavenger. L-alanine was used as a negative control as it was not expected to have protective effect.

[5] = aldehyde trapping, reaction with phenylacetaldehyde followed by HPLC; details: same manner as phenylglyoxal
Protocol: Reactions were carried out in 10 mM phosphate buffer, pH 7.4, at 37° C., and were followed by HPLC analysis. Phenylglyoxal was used at a concentration of 50 mM, while D-penicillamine and aminoguanidine were used at concentrations of 250 mM, and 500 mM. The phenylglyoxal was used as a UV active, α-oxoaldehyde compound. Over the course of the reaction, aliquots were analyzed via HPLC. For reactions involving D-penicillamine, aliquots were taken at 20 second intervals and kept on dry ice for analysis. Initial reaction rates of phenylglyoxal and test compounds were monitored by following the disappearance of phenylglyoxal over time. D-penicillamine trapped phenylglyoxal more than 60 times faster than aminoguanidine. In order to determine if the α-oxo substitution had any impact on the progress of the aldehyde trapping reaction, the reactivity of D-penicillamine with the aldehyde corresponding to phenylglyoxal, i.e., phenylacetaldehyde, was carried out, in the same manner as is described herein.

[6] = system: CF-3 (human dermal fibroblasts); experiment: protection against α-dicarbonyl toxicity in fibroblasts, cell count; assay type: cell-based; details: for protection against methylglyoxal induced growth inhibition: compound 1 mM added 15 minutes prior to methylglyoxal, 72 hours
Protocol: as §1, §2

[7] = system: histone H1 (carbonylation); experiment: histone H1 carbonylation by reducing sugars, and interference by compounds; assay type: biochemical; details: compound 5 mM
Protocol: Both protein cross-linking and protein carbonylation are well established indicia of protein glycation. See Schacter, et al., Free Radic Biol Med. 17:429-437 (1994), incorporated by reference. In brief, following the assays described infra, formation of protein cross-linking was measured on 12% SDS-PAGE, followed by Coomassie and silver staining. Cross-linking was detectable with a high degree of sensitivity, when the reaction between ADP-ribose and histone H1 was carried out at pH 9.0. […] In FIG. 8, the abbreviations “M,” “D”, and “O” represent “monomer,” “dimer” and “oligomer,” respectively. Silver staining is the preferred way of determining the cross linking. Protein carbonlyation was determined via Western blotting. Specifically, AGE-BSA, which had been prepared by incubating BSA with 1.66M glucose, at pH 7.4 for 90 days at 37° C., was recognized after being derivatized with 2.4 dinitrophenlyhydrazine (“DNP”), when tested with antibodies specific for protein bound, DNP epitopes.
A series of experiments were carried out to compare different reducing sugars as glycation agents. In addition to ADP-ribose, ADP-glucose, D-ribose and D-glucose were tested. Briefly, histone H1 was combined with 1 mM of each sugar, and the mixture was incubated at pH 7.4. After 7 days of incubation, reaction aliquots were analyzed on 12% SDS-PACE gels, with silver staining. Results are presented in FIGS. 19A and B. In each of these, lane 1 is a control, with no sugar added, while lanes 2-5 show results using D-glucose, D-ribose, ADP-glucose, and ADP-ribose, respectively. […] The amount of carbonylation caused by ADP-ribose (0.82 mole/mole histone H1), and D-ribose (0.06 mole/mole histone H1) correlated with immunostaining.
In order to determine if the carbonylation of histone H1 by ADP-ribose involved an oxidative pathway, several compounds, known to interfere with glycoxidation of proteins by D-glucose were tested to determine if they interfered with this action by ADP-ribose. The compounds tested included 5 mM DTPA under argon, 5 mM aminoguanidine, 5 mM N^α acetyl L-cysteine, 5 mM mannitol, and 100 units/ml catalase.

[8] = increased concentration of D-penicillamine, methylglyoxal
[9] = treated with 6004M methylglyoxal (so in the source)

Row | Compound | inhibition of histone H1 cross linking [1] | AGE-fluorescence (day 5) ([2]; compound 5 mM) | inhibition of AGE-fluorescence, in words [2] | AGE-fluorescence (day 5) ([2]; compound 1 mM) | % inhibition ([2]; compound 1 mM) [%] | AGE-fluorescence (day 0) ([2]; compound 1 mM) | % inhibition ([2]; compound 5 mM) [%] | AGE-fluorescence (day 0) ([2]; compound 5 mM) | AGE-fluorescence (day 5) ([2]; compound 10 mM) | % inhibition ([2]; compound 10 mM) [%] | AGE-fluorescence (day 0) ([2]; compound 10 mM) | protection against growth inhibition by glyoxal [4] | protection against methylglyoxal induced growth inhibition [4] | protection against methylglyoxal induced growth inhibition [6] | other results
1 | NC(=O)C1=CN([C@@H]2O[C@H](COP(=O)(O)OP(=O)(O)OC[C@H]3O[C@@H](n4cnc5c(N)ncnc54)[C@H](O)[C@@H]3O)[C@@H](O)[C@H]2O)C=CC1 [NADH] | no inhibitory activity | 31 (0.0) |  |  |  |  |  |  |  |  |  |  |  |  | 
2 | CC(C)(S)C(N)C(=O)O (racemic) [D,L-Penicillamine] | more potent than aminoguanidine | 2.7 (0.0) | the best of the compounds tested | 13 (0.0) | 40 | 1.1 (0.2) | 92 | 1.1 (0.1) | 1.7 (0.0) | 97 | 1.1 (0.1) |  |  |  | 
3 | CC(C)(S)[C@@H](N)C(=O)O [D-Penicillamine, reference compound] | more potent than aminoguanidine | 2.9 (0.3) | the best of the compounds tested | 11 (0.6) | 51 | 1.2 (0.0) | 91 | 1.1 (0.1) | 1.4 (0.1) | 99 | 1.1 (0.0) | appeared to protect keratinocytes against growth inhibition by glyoxal | almost completely blocked methylglyoxal's toxicity | almost completely blocked methylglyoxal's toxicity | conversion of phenylglyoxal peak into a single peak ([3]; phenylglyoxal 10 mM, D-penicillamine 20 mM, 50 mM KH2PO4 pH 7.4, room temperature, after 40 minutes): more than 90%; rate of phenylglyoxal trapping relative to aminoguanidine ([3]; second order rate constants, 10 mM phosphate buffer pH 7.4, 37° C.): more than 60 times faster; dose range cyto-protective effect [4, 8]: increased protection; survival [4, 9]: 100%; efficiency of trapping phenylacetaldehyde relative to phenylglyoxal [5]: about 14 times less efficiently; dose range cyto-protective effect [6, 8]: increased protection; survival [6, 9]: 47%
4 | N=C(N)NN [Aminoguanidine, aminoguanidine, reference compound] |  | 2.2 (0.0) |  | 4.3 (0.2) | 84 | 1.2 (0.1) | 96 | 1.2 (0.1) | 1.8 (0.0) | 97 | 1.3 (0.1) | appeared to protect keratinocytes against growth inhibition by glyoxal | rescued both cell lines from methylglyoxal induced growth inhibition in part | rescued both cell lines from methylglyoxal induced growth inhibition in part | interference with carbonylation of histone H1 by ADP-ribose [7]: slight effect; suppression of AGE-fluorescence, primary screen outcome ([2]; test compound 5 mM or limit of solubility, pH 7.4, 37° C.): suppresses the glycation of histone H1 by ADP-ribose
